According to ChEMBL document CHEMBL1201862, “PubChem BioAssay data set” (2004):
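Where inhibition never reached the appropriate level, the endpoint shown equals the highest concentration tested. Otherwise, values were interpolated linearly from a five-concentration, 48-hour dose response in 96-well plates. GI50 marks 50% less growth.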 Activity calls are given as the source filed them. Cut-off read from the data, not from the text of the source: active = GI50 up to about 1.1 µM and inactive = higher.

Legend:
Assay in all cases: NCI tumour cell line growth inhibition, 48 h
[1] = test system: A549
[2] = test system: HCC 2998
[3] = test system: HCT-15
[4] = test system: HOP-62
[5] = test system: HOP-92
[6] = test system: HT-29
[7] = test system: KM12
[8] = test system: Malme-3M
[9] = test system: OVCAR-3
[10] = test system: OVCAR-4
[11] = test system: OVCAR-5
[12] = test system: OVCAR-8
[13] = test system: RXF 393
[14] = test system: SF-268
[15] = test system: SK-MEL-28
[16] = test system: SN12C
[17] = test system: UO-31
[18] = test system: SK-OV-3

Structure (SMILES) | GI50 [1] | GI50 [2] | GI50 [3] [µM] | GI50 [4] | GI50 [5] | GI50 [6] | GI50 [7] | GI50 [8] | GI50 [9] | GI50 [10] | GI50 [11] | GI50 [12] | GI50 [13] | GI50 [14] | GI50 [15] | GI50 [16] | GI50 [17] | GI50 [18]
CN(NC1OC(CO)C(O)C(O)C1O)c1ccccc1 (centres undefined) | > 100 µM (inactive) | 43.4 µM (inactive) | > 100 | > 100 µM (inactive) | > 100 µM (inactive) | > 100 µM (inactive) | > 100 µM (inactive) | > 100 µM (inactive) | > 100 µM (inactive) | > 100 µM (inactive) | > 100 µM (inactive) | > 100 µM (inactive) | > 100 µM (inactive) | > 100 µM (inactive) | > 100 µM (inactive) | – | – | –
CCCn1cc2c(SC)nc(SC)nc2n1 | > 100 µM (inactive) | > 100 µM (inactive) | > 100 | – | > 100 µM (inactive) | > 100 µM (inactive) | > 100 µM (inactive) | > 100 µM (inactive) | – | > 100 µM (inactive) | > 100 µM (inactive) | > 100 µM (inactive) | > 100 µM (inactive) | > 100 µM (inactive) | > 100 µM (inactive) | > 100 µM (inactive) | > 100 µM (inactive) | –
COCCOCCOCCOc1cccc2c1C(=O)c1cccc(OCCOCCOCCOC)c1C2=O | > 100 µM (inactive) | > 100 µM (inactive) | > 100 | > 100 µM (inactive) | > 100 µM (inactive) | > 100 µM (inactive) | – | – | 92.5 µM (inactive) | > 100 µM (inactive) | – | > 100 µM (inactive) | 92.9 µM (inactive) | – | > 100 µM (inactive) | > 100 µM (inactive) | – | > 100 µM (inactive)
COc1cccc(-c2nccc3c(OCc4ccccc4)c(OC)c(OC)cc23)c1 | > 100 µM (inactive) | 58.3 µM (inactive) | 4.72 | > 100 µM (inactive) | > 100 µM (inactive) | 12 µM (inactive) | > 100 µM (inactive) | 2.94 µM (inactive) | > 100 µM (inactive) | – | > 100 µM (inactive) | > 100 µM (inactive) | 4.51 µM (inactive) | > 100 µM (inactive) | – | 7.67 µM (inactive) | 7.29 µM (inactive) | > 100 µM (inactive)
CC(=O)NNc1nc(C)c(C(=O)NNC(=O)C(=O)Nc2ccc(Cl)cc2)s1 | > 100 µM (inactive) | > 100 µM (inactive) | > 100 | > 100 µM (inactive) | 39.5 µM (inactive) | > 100 µM (inactive) | > 100 µM (inactive) | > 100 µM (inactive) | 28.9 µM (inactive) | 47 µM (inactive) | > 100 µM (inactive) | > 100 µM (inactive) | – | 49.7 µM (inactive) | > 100 µM (inactive) | > 100 µM (inactive) | > 100 µM (inactive) | > 100 µM (inactive)
O=C(/C=C/c1ccccc1O)c1cccs1 | > 100 µM (inactive) | > 100 µM (inactive) | > 100 | > 100 µM (inactive) | – | > 100 µM (inactive) | > 100 µM (inactive) | > 100 µM (inactive) | > 100 µM (inactive) | > 100 µM (inactive) | > 100 µM (inactive) | > 100 µM (inactive) | > 100 µM (inactive) | > 100 µM (inactive) | > 100 µM (inactive) | > 100 µM (inactive) | > 100 µM (inactive) | > 100 µM (inactive)
Cc1nc(N)nn1C1OCC(O)C(O)C1O (centres undefined) | > 100 µM (inactive) | > 100 µM (inactive) | > 100 | > 100 µM (inactive) | – | > 100 µM (inactive) | > 100 µM (inactive) | > 100 µM (inactive) | > 100 µM (inactive) | > 100 µM (inactive) | – | > 100 µM (inactive) | > 100 µM (inactive) | > 100 µM (inactive) | > 100 µM (inactive) | > 100 µM (inactive) | > 100 µM (inactive) | > 100 µM (inactive)
